Test results as given in PubChem BioAssay (NCI).
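1) Cells in 96-well plates. 2) Compound, 48 h, 5 concentrations. 3) Linear interpolation between surrounding doses. 4) Unreached endpoint = highest concentration. The concentration for 50% growth inhibition is given as GI50. Definition used: TGI = concentration required for complete inhibition of growth.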

Columns and labels:
Test in all cases: growth of human tumour cells (NCI), 48 h
[1] = tested on: 786-0 renal
[2] = tested on: A498 renal
[3] = tested on: A549 NSCLC
[4] = tested on: ACHN renal
[5] = tested on: BT-549 breast
[6] = tested on: CAKI-1 renal
[7] = tested on: CCRF-CEM leukemia
[8] = tested on: COLO 205 colon
[9] = tested on: DU-145 prostate
[10] = tested on: EKVX NSCLC
[11] = tested on: HCC-2998 colon
[12] = tested on: HCT-116 colon
[13] = tested on: HCT-15 colon
[14] = tested on: HL-60(TB) leukemia
[15] = tested on: HOP-62 NSCLC
[16] = tested on: HOP-92 NSCLC
[17] = tested on: HS 578T breast
[18] = tested on: HT29 colon
[19] = tested on: IGROV1 ovarian
[20] = tested on: K-562 leukemia
[21] = tested on: KM12 colon
[22] = tested on: LOX IMVI melanoma
[23] = tested on: M14 melanoma
[24] = tested on: MALME-3M melanoma
[25] = tested on: MCF7 breast
[26] = tested on: MDA-MB-231 breast
[27] = tested on: MDA-MB-435
[28] = tested on: MDA-MB-468 breast
[29] = tested on: MOLT-4 leukemia
[30] = tested on: NCI-H226 lung
[31] = tested on: NCI-H23 lung
[32] = tested on: NCI-H460 lung
[33] = tested on: NCI-H522 lung
[34] = tested on: NCI/ADR-RES ovarian
[35] = tested on: OVCAR-3 ovarian
[36] = tested on: OVCAR-4 ovarian
[37] = tested on: OVCAR-5 ovarian
[38] = tested on: OVCAR-8 ovarian
[39] = tested on: PC-3 prostate
[40] = tested on: RPMI-8226 leukemia
[41] = tested on: RXF 393 renal
[42] = tested on: SF-268 CNS
[43] = tested on: SF-295 CNS
[44] = tested on: SF-539 CNS
[45] = tested on: SK-MEL-2 melanoma
[46] = tested on: SK-MEL-28 melanoma
[47] = tested on: SK-MEL-5 melanoma
[48] = tested on: SK-OV-3 ovarian
[49] = tested on: SN12C renal
[50] = tested on: SNB-19 CNS
[51] = tested on: SNB-75 CNS
[52] = tested on: SR leukemia
[53] = tested on: SW-620 colon
[54] = tested on: T-47D breast
[55] = tested on: TK-10 renal
[56] = tested on: U251 CNS
[57] = tested on: UACC-257 melanoma
[58] = tested on: UACC-62 melanoma
[59] = tested on: UO-31 renal

SMILES: COc1ccccc1NC(=O)N/N=C/c1c[nH]c2ccccc12
- GI50 [1]: 1.23 µM
- TGI [1]: 3.77 µM
- GI50 [2]: 10.1 µM
- TGI [2]: 22.4 µM
- GI50 [3]: 1.22 µM
- TGI [3]: 18.2 µM
- GI50 [4]: 3.13 µM
- TGI [4]: 15.8 µM
- GI50 [5]: 0.194 µM
- TGI [5]: 4.69 µM
- GI50 [6]: 2.53 µM
- TGI [6]: 13.7 µM
- GI50 [7]: 0.379 µM
- TGI [7]: 12.9 µM
- GI50 [8]: 0.766 µM
- TGI [8]: 4.44 µM
- GI50 [9]: 2.56 µM
- TGI [9]: 12.4 µM
- GI50 [10]: 2.2 µM
- TGI [10]: 13.9 µM
- GI50 [11]: 1.42 µM
- TGI [11]: 14.2 µM
- GI50 [12]: 0.405 µM
- TGI [12]: 3.61 µM
- GI50 [13]: 0.348 µM
- TGI [13]: 12 µM
- GI50 [14]: 0.304 µM
- TGI [14]: 3.51 µM
- GI50 [15]: 3.01 µM
- TGI [15]: 18.9 µM
- GI50 [16]: 1.85 µM
- TGI [16]: 10.4 µM
- GI50 [17]: 3.05 µM
- TGI [17]: 25.7 µM
- GI50 [18]: 0.427 µM
- TGI [18]: 10.6 µM
- GI50 [19]: 1.66 µM
- TGI [19]: 20.5 µM
- GI50 [20]: 0.229 µM
- TGI [20]: 16.4 µM
- GI50 [21]: 0.574 µM
- TGI [21]: 11 µM
- GI50 [22]: 0.803 µM
- TGI [22]: 14.9 µM
- GI50 [23]: 0.365 µM
- TGI [23]: 10.8 µM
- GI50 [24]: 0.559 µM
- TGI [24]: 16.9 µM
- GI50 [25]: 0.423 µM
- TGI [25]: 12.3 µM
- GI50 [26]: 0.824 µM
- TGI [26]: 12.6 µM
- GI50 [27]: 0.226 µM
- TGI [27]: 0.647 µM
- GI50 [28]: 0.236 µM
- TGI [28]: 2.74 µM
- GI50 [29]: 0.381 µM
- TGI [29]: 11.9 µM
- GI50 [30]: 4.11 µM
- TGI [30]: 23 µM
- GI50 [31]: 1.45 µM
- TGI [31]: 10.8 µM
- GI50 [32]: 0.961 µM
- TGI [32]: 12.6 µM
- GI50 [33]: 0.177 µM
- TGI [33]: 0.428 µM
- GI50 [34]: 0.299 µM
- TGI [34]: 1.31 µM
- GI50 [35]: 0.451 µM
- TGI [35]: 5.47 µM
- GI50 [36]: 4.34 µM
- TGI [36]: 19.9 µM
- GI50 [37]: 2.72 µM
- TGI [37]: 15.5 µM
- GI50 [38]: 2.12 µM
- TGI [38]: 13.9 µM
- GI50 [39]: 1.6 µM
- TGI [39]: 14.7 µM
- GI50 [40]: 1.39 µM
- TGI [40]: 6.09 µM
- GI50 [41]: 1.66 µM
- TGI [41]: 6.45 µM
- GI50 [42]: 3.06 µM
- TGI [42]: 20.6 µM
- GI50 [43]: 0.816 µM
- TGI [43]: 5.9 µM
- GI50 [44]: 0.704 µM
- TGI [44]: 2.86 µM
- GI50 [45]: 0.67 µM
- TGI [45]: 4.92 µM
- GI50 [46]: 1.57 µM
- TGI [46]: 17.6 µM
- GI50 [47]: 1.04 µM
- TGI [47]: 5.52 µM
- GI50 [48]: 2.48 µM
- TGI [48]: 15.4 µM
- GI50 [49]: 1.1 µM
- TGI [49]: 12.1 µM
- GI50 [50]: 2.58 µM
- TGI [50]: 16.1 µM
- GI50 [51]: 3.43 µM
- TGI [51]: 20.9 µM
- GI50 [52]: 0.215 µM
- TGI [52]: 12.4 µM
- GI50 [53]: 0.479 µM
- TGI [53]: 18.5 µM
- GI50 [54]: 1.04 µM
- TGI [54]: > 100 µM
- GI50 [55]: 4.73 µM
- TGI [55]: 23.8 µM
- GI50 [56]: 1.45 µM
- TGI [56]: 12.5 µM
- GI50 [57]: 10.7 µM
- TGI [57]: 34.8 µM
- GI50 [58]: 0.473 µM
- TGI [58]: 12.5 µM
- GI50 [59]: 3.28 µM
- TGI [59]: 18.4 µM
